Assay results taken from US20260060960A1, “GAMMA-SECRETASE INHIBITORS FOR USE IN THE TREATMENT OF INHERITED EPIDERMOLYSIS BULLOSA” (OSPEDALE PEDIATRICO BAMBINO GESU', priority 2022, published 2026).
Entries after “also recorded” stand apart in the source; their conditions may differ.

Tests used:
Format in all cases: cell-based, human
[1] = system: primary fibroblasts from RDEB patients (RDEB-FBs); assay: Collagen deposition analysis (Sircol assay); details: 96 h
Procedure: The amount of collagens deposited into the extracellular matrix (ECM) was measured by using the Sirius red staining-based Sircol assay (Biocolor, Carrickfergus, Northern Ireland-UK). Briefly, two RDEB-FB strains were seeded into 12-well plates (55.000 cells/well), and growth for two days until they reached about 80-90% confluence. Then, cells were treated for 96 h with PF-03084014 (5 μM), DAPT (20 μM) or the corresponding amount of vehicle DMSO in serum-free media. GSI stimulation was performed in the presence or in the absence of TGF-β1 (2 ng/mL) as inducer of collagen synthesis. In order to further improve collagen deposition, RDEB-FB cultures were daily supplemented with 50 μg/mL of L-ascorbic acid (Merck) and 100 μg/mL of dextran sulfate 500 kDa (Merck). ECM collagens were solubilized by scraping culture wells with a solution of 0.5 M acid acetic containing pepsin at 0.1 mg/mL (Pepsin […].4.23.1, product code: […], Merck) and incubated overnight at 4° C. in agitation. The day after, ECM lysates were neutralized with 100 μL of Acid Neutralizing Reagent (Biocolor), and concentrated by overnight incubation in ice-water mix, in the presence of 200 μL of Isolation & Concentration Reagent (Biocolor). Sample absorbance values were measured by BioTek Synergy H1 microplate reader (Agilent, Santa Clara, CA, USA) at 560 nm and analyzed through the GEN5TM software v. 3.04 (Agilent).

[2] = system: NOTCH1 intracellular domain (N1-ICD); assay: Immunoblotting of cleaved NOTCH1 (N1-ICD) in nuclear extracts of RDEB fibroblasts; details: 24 h; for intranuclear levels of N1-ICD: RDEB-FBs, 5, 10 and 20 μM
Excerpt: 3-(4,5-dimethyl-2-thiazolyl)-2,5-diphenyl-2H-tetrazolium bromide (MTT) assay showing the impact of DAPT and PF-03084014 treatment on viability and proliferation rate of three primary fibroblast strains from healthy controls (NH-FBs). Absorbance values (Abs) were converted in percentage by using the following formula: AbsDAPT or PF-03084014×100/AbsREFERENCE WELLS. Data are presented as mean±standard deviation (SD) of at least eight technical replicates per condition. Cells treated with the vehicle DMSO (Panel A), and cells analyzed 24 h after seeding (T0) (Panel B) were considered as reference wells. NH-FBs were growth in DMEM medium containing 10% fetal bovine serum (FBS). […] Based on the results, it was chosen to use GSIs at 20 μM (black arrows) as it was the minimal drug concentration inducing a reduction of cell proliferation after 24 h of treatment. (Panel C) Immunoblotting analysis showing the protein levels of the cleaved and biologically active form of NOTCH1 receptor (N1-ICD, NOTCH1 intracellular domain) in nuclear extracts of primary fibroblasts from RDEB patients (RDEB-FBs, n=2) treated for 24 h with DAPT and PF-03084014 at different doses, ranging from 0.1 to 20 μM. Cells treated with the vehicle dimethyl sulfoxide (DMSO) were used as control. The reduced nuclear localization of N1-ICD indicates Notch pathway inhibition. […] Lamin B1 (LMNB1) and glyceraldehyde-3-phosphate dehydrogenase (GAPDH) served as loading controls for the nuclear and cytoplasmic protein fractions, respectively. **P-value <0.01, ***P<0.001.
RDEB-FBs were seeded on 100 mm cell culture dishes (8×10^5 cells/dish). Subconfluent cells were treated with different concentrations of PF-03084014 or DAPT for 24 h (FIG. 1—Panel C) or with 2 ng/mL of TGF-β1 for 6 h (FIG. 3D). DMSO-treated cells were used as controls. After cell harvesting with trypsin-EDTA, cytoplasmic and nuclear lysates were obtained using NE-PER™ Nuclear and Cytoplasmic Extraction Reagents kit (Thermo Fisher Scientific), following the manufacturer's instructions with slight modifications. […]

α-SMA, TAGLN, CNN1, JAG1 = assay: Immunoblotting of myofibroblast/fibrotic markers in RDEB fibroblasts; details: RDEB-FBs, 24 h, absence and presence of TGF-β1
Excerpt: Whole-cell lysates were obtained in radioimmunoprecipitation assay (RIPA) buffer (Sigma-Aldrich) supplemented with phosphatase- and protease inhibitors (Merck). Different amounts of protein lysates were run under reducing conditions by using 4-12% gradient precast gels (Thermo Fisher Scientific) or hand-casting polyacrylamide gels (4-8%), depending on the protein to be assayed. Amersham™ Protran® Premium nitrocellulose membranes (pore size 0.2 μm) (Merck) were immunoblotted with primary antibodies indicated in Table 3 and incubated with horseradish peroxidase-linked secondary antibodies.
Detection was performed using Cytiva ECL™ Prime Western Blotting System (Merck) or SuperSignal West Femto (Thermo Fisher Scientific), depending on the protein to be assayed. Antibody against Notch1 (all forms; clone bTAN20) was obtained from the Developmental Studies Hybridoma Bank (DSHB) at the University of Iowa (DSHB, Iowa City, IA, USA). GAPDH (clone 14C10), Jagged1 (clone 28H8) and NOTCH1 intracellular domain (clone D3B8) were obtained from Cell Signaling (Cell Signaling Technology Inc., Beverly, MA, USA). Antibodies against TAGLN (clone #859112) and CNN1 (clone #836701) were from R&D Systems (R&D Systems, Inc. Minneapolis, MN, USA). Antibody against α-SMA (clone 1A4) was purchased from Sigma-Aldrich. Antibody against lamin B1 (LMNB1) was from Abcam (Cambridge, UK). […]

| SMILES | collagen deposition into the ECM ([1]; 20 μM, with or without TGF-β1) | intranuclear levels of N1-ICD [2] | protein levels of contractile and fibrotic markers (immunoblotting) (α-SMA, TAGLN, CNN1, JAG1) | reduction of pepsin-soluble collagens deposited into the ECM ([1]; 5 μM, absence or presence of TGF-β1, vs untreated) [%] | nuclear N1-ICD protein levels (NOTCH1 cleavage and nuclear translocation) ([2]; RDEB-FBs, 0.1, 0.5, 1 μM, compared with DAPT) |
| --- | --- | --- | --- | --- | --- |
| C[C@H](NC(=O)Cc1cc(F)cc(F)c1)C(=O)N[C@H](C(=O)OC(C)(C)C)c1ccccc1 [DAPT, N—[N-(3,5-difluorophenacetyl)-L-alanyl]-S-phenylglycine t-butyl ester] | DAPT-mediated reduction of collagen deposition in each experimental condition, though the difference was moderate | comparable impact on the intranuclear levels of N1-ICD |  |  |  |
| CCC[C@H](N[C@H]1CCc2cc(F)cc(F)c2C1)C(=O)Nc1cn(C(C)(C)CNCC(C)(C)C)cn1 [PF-03084014, (S)-2-((S)-5,7-difluoro-1,2,3,4-tetrahydronaphthalen-3-ylamino)-N-(1-(2-methyl-1-(neopentylamino)propan-2-yl)-1H-imidazol-4-yl)pentanamide] |  | comparable impact on the intranuclear levels of N1-ICD | down-regulation of the prototypical contractile and fibrotic markers, including JAG1 | 50 | huge reduction; also recorded: greater ability of PF-03084014 in inhibiting NOTCH1 cleavage and its nuclear translocation |
